The species named for data set [1] is Homo sapiens. Nature of the data set: Inhibition of P-gp in human MDA435/LCC6MDR cells assessed as potentiation of paclitaxel-induced cytotoxicity at 1 uM measured after 5 days by Cell Titer 96 Aqueous assay relative to paclitaxel alone. Type of data set: cell-based.
Data set [2] is described as follows: Cytotoxicity against mouse L929 cells measured after 3 days by MTS assay. Type of data set: toxicity. (In general: Tetrazolium assays rely on reduction of a dye to a coloured formazan, in cell work by metabolically active cells.)
The species named for data set [3] is Homo sapiens. Nature of the data set: Potency index, ratio of EC50 for verapamil to EC50 for test compound for inhibition of P-gp in human MDA435/LCC6MDR cells assessed as reduction of vinblastine cytotoxic IC50 by half. Type of data set: cell-based.
Data set [4] has as its system P-gp. Nature of the data set: Selectivity index, ratio of IC50 for cytotoxicity against mouse L929 cells to EC50 for inhibition of P-gp in human MDA435/LCC6MDR cells assessed as reduction of vinblastine cytotoxic IC50 by half. As to conditions: probe vinblastine, read-out: Ratio IC50/EC50. Type of data set: toxicity, cell-based.
Data set [5] is filed under the species Homo sapiens. In words: Inhibition of P-gp in human MDA435/LCC6MDR cells assessed as increase in rhodamine-123 accumulation at 2 uM measured after 150 mins by fluorescence spectrophotometric method relative to control. Type of data set: cell-based.
Data set [6] relates to P-gp. Nature of the data set: Selectivity index, ratio of IC50 for cytotoxicity against mouse L929 cells to EC50 for inhibition of P-gp in human MDA435/LCC6MDR cells assessed as reduction of paclitaxel cytotoxic IC50 by half. The note with it: probe paclitaxel, read-out: Ratio IC50/EC50. Type of data set: toxicity, cell-based.
Data set [7] is filed under the species Homo sapiens. In words: Potency index, ratio of compound effect to verapamil effect for inhibition of P-gp in human MDA435/LCC6MDR cells assessed as increase in rhodamine-123 accumulation. Type of data set: cell-based.
Data set [8] is described as follows: Inhibition of P-gp in human MDA435/LCC6MDR cells assessed as reduction of doxorubicin cytotoxic IC50 by half after 5 days by Cell Titer 96 Aqueous assay. The format is cell-based. The note with it: 120 h.
The species named for data set [9] is Homo sapiens. Nature of the data set: Potency index, ratio of EC50 for verapamil to EC50 for test compound for inhibition of P-gp in human MDA435/LCC6MDR cells assessed as reduction of doxorubicin cytotoxic IC50 by half. Type of data set: cell-based.
Data set [10] relates to P-gp. Nature of the data set: Selectivity index, ratio of IC50 for cytotoxicity against mouse L929 cells to EC50 for inhibition of P-gp in human MDA435/LCC6MDR cells assessed as reduction of vincristine cytotoxic IC50 by half. As to conditions: probe vincristine, read-out: Ratio IC50/EC50. Type of data set: toxicity, cell-based.
The species entered for data set [11] is Homo sapiens. Nature of the data set: Inhibition of P-gp in human MDA435/LCC6MDR cells assessed as increase in doxorubicin accumulation at 2 uM measured after 150 mins by fluorescence spectrophotometric method relative to control. The format is cell-based.
Data set [12] concerns P-gp. Nature of the data set: Selectivity index, ratio of IC50 for cytotoxicity against mouse L929 cells to EC50 for inhibition of P-gp in human MDA435/LCC6MDR cells assessed as reduction of doxorubicin cytotoxic IC50 by half. The format is toxicity, cell-based. The note with it: probe doxorubicin, read-out: Ratio IC50/EC50.
The species entered for data set [13] is Homo sapiens. In words: Potency index, ratio of EC50 for verapamil to EC50 for test compound for inhibition of P-gp in human MDA435/LCC6MDR cells assessed as reduction of vincristine cytotoxic IC50 by half. Type of data set: cell-based.
Data set [14] can be described thus: Inhibition of P-gp in human MDA435/LCC6MDR cells assessed as reduction of vincristine cytotoxic IC50 by half measured after 5 days by Cell Titer 96 Aqueous assay. Type of data set: cell-based. The note with it: 120 h.
Data set [15] in a line: Inhibition of P-gp in human MDA435/LCC6MDR cells assessed as reduction of paclitaxel cytotoxic IC50 by half measured after 5 days by Cell Titer 96 Aqueous assay. Type of data set: cell-based. As to conditions: 120 h.
Data set [16] is filed under the species Homo sapiens. Nature of the data set: Potency index, ratio of EC50 for verapamil to EC50 for test compound for inhibition of P-gp in human MDA435/LCC6MDR cells assessed as reduction of paclitaxel cytotoxic IC50 by half. The format is cell-based.
The nature of data set [17]: Inhibition of P-gp in human MDA435/LCC6MDR cells assessed as reduction of vinblastine cytotoxic IC50 by half measured after 5 days by Cell Titer 96 Aqueous assay. The note with it: 120 h. The format is cell-based.
The nature of data set [18]: Inhibition of P-gp in human MDA435/LCC6MDR cells assessed as increase in doxorubicin accumulation to half of parental LCC6 cells measured after 150 mins by fluorescence spectrophotometric method. The format is cell-based. As to conditions: MDA-435/LCC6, 2.5 h.

The text below walks through data of ChEMBL document CHEMBL3877281, “Extending the structure-activity relationship study of marine natural ningalin B analogues as P-glycoprotein inhibitors” (Eur J Med Chem, 2017).

Each structure is given as a SMILES string.

With `COc1ccc(C2=C(c3ccccc3)C(=O)N(Cc3cc(OC)c(OC)c(OC)c3)C2=O)cc1OC`, in [1], the fold change (FC) is 7.1.

Take `COc1ccc(C(=O)CN2C(=O)C(c3ccccc3)=C(c3ccc(OC)c(OC)c3)C2=O)cc1`: in data set [1], the fold change (FC) stood at 2.6. Same read-out and setting: the same measure for `COc1ccc(C2=C(c3ccc(OC)c(OCc4ccccc4)c3)C(=O)N(Cc3cc(OC)c(OC)c(OC)c3)C2=O)cc1OC`: 11.9; for `COc1ccc(C2=C(c3ccc(OC)c(OC)c3)C(=O)N(CC(=O)c3ccc(OCc4ccccc4)c(OC)c3)C2=O)cc1OC`: 39.8.

Regarding `COc1ccc(C2=C(c3ccc(OC)c(OC)c3)C(=O)N(CC(=O)c3ccc(S(C)(=O)=O)cc3)C2=O)cc1OC`, the fold change (FC) in data set [1] was 1.4. In the case of `COc1ccc(C2=C(c3ccccc3)C(=O)N(CC(=O)c3ccc(OCc4ccccc4)c(OC)c3)C2=O)cc1OC`, the fold change (FC) in [1] turned out to be 5.9. Same read-out and setting: the same measure for `COc1ccc(C2=C(c3ccc(OC)c(OC)c3)C(=O)N(Cc3cc(OC)c(OC)c(OC)c3)C2=O)cc1OC`: 13.8; for `COc1ccc(C2=C(SC)C(=O)N(CC(=O)c3ccc(OCc4ccccc4)c(OC)c3)C2=O)cc1OC`: 1.4; for `COc1ccc(C(=O)CN2C(=O)C(c3ccc(OC)cc3)=C(c3ccc(OC)c(OC)c3)C2=O)cc1`: 2.7. The same measure, in the same setting: under `COc1ccc(C(=O)CN2C(=O)c3ccccc3C2=O)cc1` stands 1.3. Regarding `COc1ccc(C2=C(c3ccc(OCc4ccccc4)c(OC)c3)C(=O)N(CC(=O)c3ccc(OCc4ccccc4)c(OC)c3)C2=O)cc1OC`, in [1], the fold change (FC) was found to be 1.4. On the same count and under the same terms, the same measure for `COc1ccc(C2=C(c3ccc(C)cc3)C(=O)N(Cc3ccc(S(C)(=O)=O)cc3)C2=O)cc1OC`: 3; for `COc1ccc(C2=CC(=O)N(CC(=O)c3ccc(OCc4ccccc4)c(OC)c3)C2=O)cc1OC`: 1.4; for `COc1ccc(C2=C(c3ccc(OC)c(OC)c3)C(=O)N(Cc3ccc(OCc4ccccc4)c(OC)c3)C2=O)cc1OC`: 9.3. The same measure, in the same setting: the same measure for `COc1ccc(C2=C(c3ccc(C)cc3)C(=O)N(CC(=O)c3ccc(S(C)(=O)=O)cc3)C2=O)cc1OC`: 2; for `COc1ccc(C2=C(c3ccc(OC)c(OC)c3)C(=O)N(Cc3cc(OC)c(OC)c(OC)c3)C2=O)cc1`: 5.1.

For the compound `COc1cccc(C2=C(c3ccc(OC)c(OC)c3)C(=O)N(Cc3cc(OC)c(OC)c(OC)c3)C2=O)c1`, the fold change (FC) in [1] was 11.4.

Take `COc1ccc(C2=C(c3ccc(OC)c(OC)c3)C(=O)N(Cc3ccc(S(C)(=O)=O)cc3)C2=O)cc1OC`: the fold change (FC) in data set [1] came to 3.4. The same measure, in the same setting: the same measure for `COc1ccc(C2=C(c3ccc(OC)c(OC)c3)C(=O)N(CC(=O)c3ccc(OCc4ccccc4)c(OC)c3)C2=O)cc1`: 22.1; for `COc1ccc(C(=O)CN2C(=O)C(c3ccc(OC)c(OC)c3)=C(c3ccc(OC)c(OC)c3)C2=O)cc1`: 7.6; for `COc1ccc(C2=C(c3ccc(C)cc3)C(=O)N(CC(=O)c3ccc(OCc4ccccc4)c(OC)c3)C2=O)cc1OC`: 8.6. Consider `COc1ccc(CCN(C)CCCC(C#N)(c2ccc(OC)c(OC)c2)C(C)C)cc1OC` (stereo unspecified) [VERAPAMIL], for which, in data set [2], the IC50 at 3 days was found to be 89000 nM.

For the compound `COc1cccc(C2=C(c3ccc(OC)c(OC)c3)C(=O)N(CC(=O)c3ccc(OCc4ccccc4)c(OC)c3)C2=O)c1`, in data set [1], the fold change (FC) was found to be 8.8. Still for that read-out and setting: under `COc1ccc(C2=C(c3ccc(OC)c(OC)c3)C(=O)N(Cc3ccc(OCc4ccccc4)cc3)C2=O)cc1OC` stands 4.2; under `COc1ccc(C(=O)CN2C(=O)C(c3ccc(OC)c(OC)c3)=C(c3ccc(OCc4ccccc4)c(OC)c3)C2=O)cc1`, 4.5. Same read-out and setting: the same measure for `COc1ccc(C(=O)CN2C(=O)C(c3cccc(OC)c3)=C(c3ccc(OC)c(OC)c3)C2=O)cc1`: 3.5; for `COc1cc(CN2C(=O)c3ccccc3C2=O)cc(OC)c1OC`: 1.2. `COc1ccc(C2=C(c3ccc(OC)c(OC)c3)C(=O)N(CC(=O)c3ccc(OCc4cc(OC)c(OC)c(OC)c4Br)c(OC)c3)C2=O)cc1OC`: the Ratio EC50 in data set [3], in [9], in [13] and in data set [16] was 2 to 3.7 each time. In addition, the selectivity ratio in data set [4] was more than 730; in data set [6], more than 606; in [10], more than 758; in [12] it was more than 833. Moreover, the fold change (FC) was 4.8 in [5], 48 in data set [1] and 2.4 in data set [11]. In addition, the Ratio in data set [7] is 1.7. In addition, the EC50 in data set [8] was 120 nM; in data set [14], 132 nM; in [15], 165 nM; in data set [17] it was 137 nM; in data set [18] it was 78 nM. Besides, the concentration for half-maximal inhibition (IC50) at 3 days in data set [2] was more than 100000 nM. For the compound `COc1cc(C(=O)CN2C(=O)c3ccccc3C2=O)ccc1OCc1ccccc1`, the fold change (FC) in data set [1] was determined as 1.1.

The IC50 is the concentration at which inhibition is half-maximal. By EC50 is commonly meant the concentration needed to bring the measured effect to its halfway point.
